Like-named read-outs stand apart in the source and are kept apart here.
Assays:
[1] = system: Surinam grass; assay: Test B pre-/postemergence herbicide test; type: in vivo, Urochloa decumbens; conditions: for pest or weed control at 500 g/ha: 500 g ai/ha
Method in brief: (§1)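 Response was scored visually 13 to 15 days after treatment against untreated greenhouse controls, 0 meaning no effect and 100 complete control. Formulations (solvent mixture plus surfactant) went onto soil after planting, onto foliage of 1- to 4-leaf plants, and onto 2-leaf plants in a flooded paddy set including rice and barnyardgrass.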

[2] = system: wild oat; assay: Test B postemergence herbicide test; type: in vivo, Avena fatua; conditions: Avena fatua, post-emergence, 336 h, read-out: Oat, Wild plant response rating
Method in brief: (§2)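 Treated at 2-leaf (paddy) or 1–4-leaf, 2–18 cm (postemergence); greenhouse 13–15 d; visual score vs control, 0 none to 100 complete control; dash = not tested.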

[3] = system: wheat; assay: Test B postemergence herbicide test; type: in vivo, Triticum aestivum; conditions: Triticum aestivum, post-emergence, 336 h, read-out: Wheat plant response rating
Method in brief: as §2

[4] = system: giant foxtail; assay: Test B pre-/postemergence herbicide test; type: in vivo, Setaria faberi; conditions: for pest or weed control at 500 g/ha: 500 g ai/ha
Method in brief: as §1

[5] = system: pigweed; assay: Test B pre-/postemergence herbicide test; type: in vivo, Amaranthus retroflexus; conditions: for pest or weed control at 500 g/ha: 500 g ai/ha
Method in brief: as §1

[6] = system: lambsquarters; assay: Test B pre-/postemergence herbicide test; type: in vivo, Chenopodium album; conditions: for pest or weed control at 500 g/ha: 500 g ai/ha
Method in brief: as §1

[7] = system: corn; assay: Test B pre-/postemergence herbicide test; type: in vivo, Zea mays
Method in brief: as §1

[8] = system: velvetleaf; assay: Test B pre-/postemergence herbicide test; type: in vivo, Abutilon theophrasti
Method in brief: as §1

[9] = system: barnyardgrass; assay: Test B flooded paddy test; type: in vivo, Echinochloa crus-galli; conditions: Echinochloa crus-galli, 336 h, 1000 g ai/ha, scale 0 to 100 (0 no effect, 100 complete control), read-out: Barnyardgrass plant response rating
Method in brief: (§3)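 Formulated test chemicals went onto postemergence plants measuring 2 to 18 cm, at one to four leaves. For the paddy assay, species had reached two leaves. Scoring took place 13–15 days later by eye, relative to untreated plants, using 0 for no effect up to 100 for full control.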

[10] = system: barnyardgrass; assay: Test B pre-/postemergence herbicide test; type: in vivo, Echinochloa crus-galli; conditions: for pest or weed control at 500 g/ha: 500 g ai/ha
Method in brief: (§4)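 Plants compared with untreated controls 13–15 days post-treatment and given a visual 0–100 injury score. Applications: preemergence to seeds; postemergence at 1- to 4-leaf (2–18 cm); paddy species flooded, 2-leaf stage. Vehicle non-phytotoxic, surfactant included.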

[11] = system: small flower umbrella sedge; assay: Test B flooded paddy test; type: in vivo, Cyperus difformis; conditions: Cyperus difformis, 336 h, 1000 g ai/ha, scale 0 to 100 (0 no effect, 100 complete control), read-out: Sedge, Umbrella plant response rating
Method in brief: as §3

[12] = system: cocklebur; assay: Test B pre-/postemergence herbicide test; type: in vivo, Xanthium strumarium; conditions: for pest or weed control at 500 g/ha: 500 g ai/ha
Method in brief: as §4

[13] = system: morningglory; assay: Test B pre-/postemergence herbicide test; type: in vivo, Ipomoea coccinea; conditions: for pest or weed control at 500 g/ha: 500 g ai/ha
Method in brief: as §4

[14] = system: large crabgrass; assay: Test B pre-/postemergence herbicide test; type: in vivo, Digitaria sanguinalis; conditions: for pest or weed control at 500 g/ha: 500 g ai/ha
Method in brief: as §1

[15] = system: rice; assay: Test B flooded paddy test; type: in vivo, Oryza sativa; conditions: Oryza sativa, 336 h, 1000 g ai/ha, scale 0 to 100 (0 no effect, 100 complete control), read-out: Rice plant response rating
Method in brief: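 Postemergence plants were sprayed with formulated test chemicals at 2 to 18 cm height (1- to 4-leaf stage); paddy species were grown to the 2-leaf stage. After 13 to 15 days in a greenhouse, injury was rated visually against untreated controls on a 0–100 scale (0 = no effect, 100 = complete control).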

[16] = 125 g ai/ha, 0 is no effect, 100 is complete control, preemergence
[17] = 125 g ai/ha, visual rating, scale 0 (no effect) to 100 (complete control)
[18] = postemergence, 500 g ai/ha, scale 0 to 100, 0 is no effect, 100 is complete control

Structure (SMILES): CCn1nc2c(c1C(=O)Nc1cc(C(=O)N(C)C)ccc1F)CCC2(C)C [Compound 352, N-[5-[(dimethylamino)carbonyl]-2-fluorophenyl]-2-ethyl-2,4,5,6-tetrahydro-6,6-dimethyl-3-cyclopentapyrazolecarboxamide]
- Plant response rating (0 to 100 scale), Surinam Grass [1, 16]: 90
- pest or weed control at 125 g/ha ([1]; Urochloa decumbens, post-emergence, 125 g ai/ha, visual rating, scale 0 (no effect) to 100 (complete control), read-out: Surinam Grass plant response rating): 10%
- pest or weed control at 500 g/ha ([1]; Urochloa decumbens, post-emergence, postemergence, scale 0 to 100, 0 is no effect, 100 is complete control, read-out: Surinam Grass plant response rating): 40%
- pest or weed control at 500 g/ha ([1]; Urochloa decumbens, pre-emergence, visual rating, 0 = no effect, 100 = complete control, read-out: Plant response rating, Surinam Grass): 100%
- pest or weed control at 125 g/ha [2, 17]: 0%
- pest or weed control at 500 g/ha [2, 18]: 20%
- plant injury at 125 g/ha [3, 17]: 10%
- plant injury at 500 g/ha [3, 18]: 20%
- Plant response rating (0 to 100 scale), Foxtail, Giant [4, 16]: 70
- pest or weed control at 125 g/ha ([4]; Setaria faberi, post-emergence, 336 h, 125 g ai/ha, visual rating, scale 0 (no effect) to 100 (complete control), read-out: Foxtail, Giant plant response rating): 10%
- pest or weed control at 500 g/ha ([4]; Setaria faberi, post-emergence, 336 h, postemergence, scale 0 to 100, 0 is no effect, 100 is complete control, read-out: Foxtail, Giant plant response rating): 30%
- pest or weed control at 500 g/ha ([4]; Setaria faberi, pre-emergence, 336 h, visual rating, 0 = no effect, 100 = complete control, read-out: Plant response rating, Foxtail, Giant): 100%
- Plant response rating (0 to 100 scale), Pigweed [5, 16]: 50
- pest or weed control at 125 g/ha ([5]; Amaranthus retroflexus, post-emergence, 336 h, 125 g ai/ha, visual rating, scale 0 (no effect) to 100 (complete control), read-out: Pigweed plant response rating): 10%
- pest or weed control at 500 g/ha ([5]; Amaranthus retroflexus, post-emergence, 336 h, postemergence, scale 0 to 100, 0 is no effect, 100 is complete control, read-out: Pigweed plant response rating): 60%
- pest or weed control at 500 g/ha ([5]; Amaranthus retroflexus, pre-emergence, 336 h, visual rating, 0 = no effect, 100 = complete control, read-out: Plant response rating, Pigweed): 70%
- Plant response rating (0 to 100 scale), Lambsquarters [6, 16]: 90
- pest or weed control at 125 g/ha ([6]; Chenopodium album, post-emergence, 336 h, 125 g ai/ha, visual rating, scale 0 (no effect) to 100 (complete control), read-out: Lambsquarters plant response rating): 10%
- pest or weed control at 500 g/ha ([6]; Chenopodium album, post-emergence, 336 h, postemergence, scale 0 to 100, 0 is no effect, 100 is complete control, read-out: Lambsquarters plant response rating): 60%
- pest or weed control at 500 g/ha ([6]; Chenopodium album, pre-emergence, 336 h, visual rating, 0 = no effect, 100 = complete control, read-out: Plant response rating, Lambsquarters): 100%
- Plant response rating (0 to 100 scale), Corn [7, 16]: 60
- plant injury at 125 g/ha ([7]; Zea mays, post-emergence, 125 g ai/ha, visual rating, scale 0 (no effect) to 100 (complete control), read-out: Corn plant response rating): 0%
- plant injury at 500 g/ha ([7]; Zea mays, post-emergence, postemergence, 500 g ai/ha, scale 0 to 100, 0 is no effect, 100 is complete control, read-out: Corn plant response rating): 10%
- Corn plant response rating (crop injury, 0 = no effect, 100 = complete kill) at 500 g/ha ([7]; Zea mays, pre-emergence, 500 g ai/ha, visual rating, 0 = no effect, 100 = complete control): 80%
- Plant response rating (0 to 100 scale), Velvetleaf [8, 16]: 30
- pest or weed control at 125 g/ha ([8]; Abutilon theophrasti, post-emergence, 336 h, 125 g ai/ha, visual rating, scale 0 (no effect) to 100 (complete control), read-out: Velvetleaf plant response rating): 10%
- pest or weed control at 500 g/ha ([8]; Abutilon theophrasti, post-emergence, 336 h, postemergence, 500 g ai/ha, scale 0 to 100, 0 is no effect, 100 is complete control, read-out: Velvetleaf plant response rating): 60%
- pest or weed control at 1000 g/ha [9]: 90%
- Plant response rating (0 to 100 scale), Barnyardgrass [10, 16]: 70
- pest or weed control at 125 g/ha ([10]; Echinochloa crus-galli, post-emergence, 125 g ai/ha, visual rating, scale 0 (no effect) to 100 (complete control), read-out: Barnyardgrass plant response rating): 0%
- pest or weed control at 500 g/ha ([10]; Echinochloa crus-galli, post-emergence, postemergence, scale 0 to 100, 0 is no effect, 100 is complete control, read-out: Barnyardgrass plant response rating): 10%
- pest or weed control at 500 g/ha ([10]; Echinochloa crus-galli, pre-emergence, visual rating, 0 = no effect, 100 = complete control, read-out: Plant response rating, Barnyardgrass): 90%
- pest or weed control at 1000 g/ha [11]: 80%
- Plant response rating (0 to 100 scale), Cocklebur [12, 16]: 0
- pest or weed control at 125 g/ha ([12]; Xanthium strumarium, post-emergence, 125 g ai/ha, visual rating, scale 0 (no effect) to 100 (complete control), read-out: Cocklebur plant response rating): 0%
- pest or weed control at 500 g/ha ([12]; Xanthium strumarium, post-emergence, postemergence, scale 0 to 100, 0 is no effect, 100 is complete control, read-out: Cocklebur plant response rating): 10%
- pest or weed control at 500 g/ha ([12]; Xanthium strumarium, pre-emergence, visual rating, 0 = no effect, 100 = complete control, read-out: Plant response rating, Cocklebur): 0%
- Plant response rating (0 to 100 scale), Morningglory [13, 16]: 0
- pest or weed control at 125 g/ha ([13]; Ipomoea, post-emergence, 336 h, 125 g ai/ha, visual rating, scale 0 (no effect) to 100 (complete control), read-out: Morningglory plant response rating): 10%
- pest or weed control at 500 g/ha ([13]; Ipomoea, post-emergence, 336 h, postemergence, scale 0 to 100, 0 is no effect, 100 is complete control, read-out: Morningglory plant response rating): 60%
- pest or weed control at 500 g/ha ([13]; Ipomoea, pre-emergence, 336 h, visual rating, 0 = no effect, 100 = complete control, read-out: Plant response rating, Morningglory): 0%
- Plant response rating (0 to 100 scale), Crabgrass, Large [14, 16]: 90
- pest or weed control at 125 g/ha ([14]; Digitaria sanguinalis, post-emergence, 125 g ai/ha, visual rating, scale 0 (no effect) to 100 (complete control), read-out: Crabgrass, Large plant response rating): 20%
- pest or weed control at 500 g/ha ([14]; Digitaria sanguinalis, post-emergence, postemergence, scale 0 to 100, 0 is no effect, 100 is complete control, read-out: Crabgrass, Large plant response rating): 20%
- pest or weed control at 500 g/ha ([14]; Digitaria sanguinalis, pre-emergence, visual rating, 0 = no effect, 100 = complete control, read-out: Plant response rating, Crabgrass, Large): 100%
- plant injury at 1000 g/ha [15]: 70%
